Source: paper PMC8788354 (Journal of Enzyme Inhibition and Medicinal Chemistry, 2022)
Where two headings read alike, the source gives them in different places.

Tests used:
[1] = tested on: SKBR-3 (human breast cancer cell line); assay: cells; type: cell-based; details: for IC50: SRB assay, 72 h exposure, read-out: Anticancer activity IC50 (nM) ± SD, SKBR-3; for Selectivity index (SI), SKBR-3: SI = IC50 HDF/IC50 SKBR-3
[2] = tested on: SKOV-3 (ovarian cancer cell line); assay: cells; type: cell-based, human; details: Homo sapiens, SK-OV-3; SRB assay, 72 h exposure; read-out: Anticancer activity IC50 (nM) ± SD, SKOV-3
[3] = tested on: PC-3 (human prostate cancer cell line); assay: cells; type: cell-based; details: Homo sapiens; SRB assay, 72 h exposure; read-out: Anticancer activity IC50 (nM) ± SD, PC-3
[4] = tested on: U-87MG cells (glioblastoma cell line); assay: cells; type: cell-based, human; details: for IC50: Homo sapiens, U-87 MG, SRB assay, 72 h exposure, read-out: Anticancer activity IC50 (nM) ± SD, U-87
[5] = tested on: SKBR-3, SKOV-3, PC-3, U-87 cells; assay: SRB cytotoxicity assay, values summarised over cancer cell lines; type: cell-based, human
in vitro = details: human, Toxicity IC50 (nM) ± SD, HDF, healthy cell line HDF, SRB assay, 72 h exposure
[6] = tested on: Human Dermal Fibroblasts cell line (HDF); details: read-out: Toxicity IC50 (nM) ± SD, HDF; healthy cell line HDF, SRB assay, 72 h exposure
[7] = Homo sapiens, SKBR-3, SKOV-3, PC-3, U-87, read-out: Anticancer IC50 over the studied cancer cell lines

SMILES | IC50 ([1]; Homo sapiens, SK-BR-3, 72 h) [nM] | Selectivity index (SI), SKBR-3 [1] | IC50 [1] [nM] | IC50 [2] [nM] | IC50 [3] [nM] | IC50 [4] [nM] | IC50 [5, 7] [nM] | IC50 (in vitro) [nM] | Selectivity indexes (SIs), all studied cancer cell lines ([5]; SI = IC50 HDF/IC50 cancer cell line) | IC50 ([5]; SKBR-3, SKOV-3, PC-3, U-87, read-out: Anticancer IC50 over the studied cancer cell lines) [nM] | IC50 [6] [nM] | Selectivity index (SI), U-87 ([4]; SI = IC50 HDF/IC50 U-87) | IC50 ([5]; Homo sapiens, average over cancer cell lines, read-out: Average anticancer IC50) [nM]
COc1cc2c(c(OC)c1OC)-c1ccc(OCc3ccc(/C=C/c4cnc5ccccc5c4)cc3)c(=O)cc1[C@@H](NC(C)=O)CC2 [Compound 8c] | ~1 | ~2.6 | 1.05 ± 0.06 | 1.41 ± 0.02 | 1.47 ± 0.05 | 1.65 ± 0.03 | 1.03 to 1.73 | 2.77 ± 0.25 |  |  |  |  | 
C/C=C/COc1cc2c(ccc1=O)-c1c(cc(OC)c(OC)c1OC)CC[C@@H]2NC(C)=O [Compound 3e] | 0.94 ± 0.06 |  |  | 0.98 ± 0.02 | 0.96 ± 0.01 | 0.95 ± 0.01 | 0.94 to 0.98 | 2.13 ± 0.06 | ~2.2 | ~0.9 |  |  | 
COc1cc2c(c(OC)c1OC)-c1ccc(=O)c(OCc3ccc(/C=C/c4ccccn4)cc3)cc1[C@@H](NC(C)=O)CC2 [Compound 7b] | 2.09 ± 0.33 |  |  | 2.69 ± 0.02 | 2.45 ± 0.52 | 2.43 ± 0.12 | 2 to 2.5 | 4 to 5 |  |  | 5.11 ± 0.85 |  | 
COc1cc2c(c(OC)c1OC)-c1ccc(=O)c(OCc3ccc(/C=C/c4cnc5ccccc5c4)cc3)cc1[C@@H](NC(C)=O)CC2 [Compound 7c] | 1.51 ± 0.02 |  |  | 1.03 ± 0.09 | 1.52 ± 0.01 | 1.73 ± 0.09 | 1.03 to 1.73 | 2.16 ± 0.6 |  |  |  |  | 
C=CCCOc1ccc2c(cc1=O)[C@@H](NC(C)=O)CCc1cc(OC)c(OC)c(OC)c1-2 [Compound 4h] | 1.69 ± 0.05 |  |  | 1.27 ± 0.16 | 1.22 ± 0.03 | 1.07 ± 0.12 |  | 2.71 ± 0.08 |  |  |  | ~2.5 | ~1.5
COc1cc2c(c(OC)c1OC)-c1ccc(=O)c(OCc3cn(Cc4ccc([N+](=O)[O-])cc4)nn3)cc1[C@@H](NC(C)=O)CC2 [Compound 5c] | 2.18 ± 0.02 |  |  | 2.94 ± 0.71 | 2.09 ± 0.33 | 2.04 ± 0.08 |  | 3.12 ± 0.41 |  |  |  |  | 
COc1cc2c(c(OC)c1OC)-c1ccc(=O)c(OCc3ccccc3)cc1[C@@H](NC(C)=O)CC2 [Compound 3a] | 2.04 ± 0.51 | ~3 |  | 2.19 ± 0.07 | 2.27 ± 0.04 | 2.83 ± 0.06 |  | 6.39 ± 1.04 |  |  |  |  | 
C=Cc1ccc(COc2ccc3c(cc2=O)[C@@H](NC(C)=O)CCc2cc(OC)c(OC)c(OC)c2-3)cc1 [Compound 4j] | 3.22 ± 0.36 |  |  | 3.01 ± 0.04 | 3.05 ± 0.01 | 3.11 ± 0.03 |  | 5.17 ± 0.28 |  |  |  |  | 
COc1cc2c(c(OC)c1OC)-c1ccc(OCc3ccc(/C=C/c4ccccn4)cc3)c(=O)cc1[C@@H](NC(C)=O)CC2 [Compound 8b] | 2.77 ± 0.04 |  |  | 2.84 ± 0.03 | 2.63 ± 0.77 | 2.49 ± 0.05 | 2 to 2.5 | 4 to 5 |  |  | 4.83 ± 0.27 |  | 
COc1cc2c(c(OC)c1OC)-c1ccc(OCCCN=[N+]=[N-])c(=O)cc1[C@@H](NC(C)=O)CC2 [Compound 4i] | 1.38 ± 0.03 |  |  | 1.37 ± 0.09 | 1.49 ± 0.16 | 1.19 ± 0.03 |  | 2.58 ± 0.12 |  |  |  |  | 
COc1cc2c(c(OC)c1OC)-c1ccc(OCc3cn(Cc4ccccc4)nn3)c(=O)cc1[C@@H](NC(C)=O)CC2 [Compound 6a] | 2.33 ± 0.09 |  |  | 2.79 ± 0.07 | 2.04 ± 0.44 | 2.78 ± 0.05 |  | 3.88 ± 0.14 |  |  |  |  | 
COc1cc2c(c(OC)c1OC)-c1ccc(=O)c(OCc3cn(Cc4ccc(C#N)cc4)nn3)cc1[C@@H](NC(C)=O)CC2 [Compound 5b] | 2.07 ± 0.08 |  |  | 2.88 ± 0.47 | 2.13 ± 0.02 | 2.57 ± 0.13 |  | 4.92 ± 0.51 |  |  |  |  | 
CCOC(=O)COc1cc2c(ccc1=O)-c1c(cc(OC)c(OC)c1OC)CC[C@@H]2NC(C)=O [Compound 3g] | 1.31 ± 0.08 |  |  | 1.37 ± 0.01 | 1.62 ± 0.29 | 1.41 ± 0.03 |  | 2.72 ± 0.03 |  |  |  |  | 
C=CCOc1ccc2c(cc1=O)[C@@H](NC(C)=O)CCc1cc(OC)c(OC)c(OC)c1-2 [Compound 4d] | 1.73 ± 0.11 |  |  | 1.73 ± 0.07 | 1.71 ± 0.03 | 1.78 ± 0.03 |  | 2.39 ± 0.17 |  |  |  |  | 
